Patent EP0435794A1, “Alkenyl- or heteroaryl thio, sulfone, sulfoxy herbicides” (RHONE-POULENC AGROCHIMIE, priority 1989, dated 1991)

Each molecule was assayed on Alopecurus myosuroides (assay: Exemple C: selectivity test in field crops, pre-emergence (weed)). Conditions: dose 0.5 Kg m.a./ha, 24 days.
Type: in vivo
Excerpt: (§1) Exemple C - Essai de sélectivité en grandes cultures avec application herbicide, en prélevée des espèces végétales
(§2) Dans des pots de 7 X 7 X 8 cm remplis de terre agricole légère, on sème un nombre de graines déterminé en fonction de l'espèce végétale et de la grosseur de la graine.
(§3) On recouvre ensuite les graines d'une couche de terre d'environ 3 mm d'épaisseur.
(§4) Les pots sont alors traités par pulvérisation de bouillie en quantité correspondant à une dose volumique d'application de 500 l/ha et contenant la matière active à la concentration désirée.
(§5) La bouillie a été préparée de la même manière qu'à l'exemple A.
(§6) Les pots traités sont ensuite placés dans des bacs destinés à recevoir l'eau d'arrosage, en subirrigation, et maintenus pendant 24 jours à température ambiante sous 70 % d'humidité relative.
(§7) Le relevé est effectué de la façon suivante:
(§8) Au bout de 24 jours, on mesure un pourcentage (D) de destruction du nombre de pieds dans le pot traité par rapport au nombre de plantes dans les pots non traités (témoin). On mesure, sur les plantes traitées restantes, le pourcentage de réduction de taille (RT) par rapport aux plantes témoins.
(§9) Le pourcentage de volume foliaire non détruit par le produit est donc donné par la formule: ([100-D] X [100-RT])/(100)= A [formula]
(§10) Cette valeur A est transformée en notation de 0 à 5 selon l'échelle suivante:
(§11) Ainsi, un produit est jugé comme sélectif vis à vis de la culture lorsque la valeur A notée est de 0 ou 1.
(§12) Les résultats obtenus sont présentés dans l'exemple C pour des doses d'application de 500, 1000, 2000 ou 4000 g de matière active par hectare selon les produits.
(§13) Les espèces végétales utilisées dans cet exemple sont: […]
For Notation de l'activité herbicide ORY in this document: ranges in brackets are in %.
For Notation de l'activité herbicide ZEA in this document: ranges in brackets are in %.

| Compound | Notation de l'activité herbicide ALO |
| --- | --- |
| O=S(=O)(CC(O)(CBr)c1cccc(F)c1)c1cccs1 (centres unmarked) [compound 53, 1-bromo 2-(3-fluorophényl) 3-(2-thiénylsulfonyl) 2-propanol] | 2 (50 à 70) |
| CC(=O)OC(CBr)(CS(=O)(=O)c1sccc1Br)c1ccccc1 (centres unmarked) [compound 60, 2-acétoxy 3-bromo 1-[(3-bromo 2-thiényl)sulfonyl] 2-phényl propane] | 2 (50 à 70) |
| O=S(=O)(CC(O)(CBr)c1ccc(F)c(Cl)c1)c1ccsc1 (centres unmarked) [compound 65] | 0 (90 à 100) |

Each molecule was assayed on Digitaria sanguinalis in the same assay as above. Conditions: dose 0.5 Kg m.a./ha, 24 days.
Type: in vivo
Excerpt: as §1, §2, §3, §4, §5, §6, §7, §8, §9, §10, §11, §12, §13

| Compound | Notation de l'activité herbicide DIG |
| --- | --- |
| O=S(=O)(CC(O)(CBr)c1cccc(F)c1)c1cccs1 (centres unmarked) [compound 53, 1-bromo 2-(3-fluorophényl) 3-(2-thiénylsulfonyl) 2-propanol] | 4 (10 à 30) |
| O=S(=O)(CC(O)(CBr)c1ccc(F)c(Cl)c1)c1ccsc1 (centres unmarked) [compound 65] | 5 (O à 10) |

The molecules below were run on Echinochloa crus-galli in the same assay as above. Conditions: dose 0.5 Kg m.a./ha, 24 days.
Type: in vivo
Excerpt: as §1, §2, §3, §4, §5, §6, §7, §8, §9, §10, §11, §12, §13

| Compound | Notation de l'activité herbicide ECh |
| --- | --- |
| O=S(=O)(CC(O)(CBr)c1cccc(F)c1)c1cccs1 (centres unmarked) [compound 53, 1-bromo 2-(3-fluorophényl) 3-(2-thiénylsulfonyl) 2-propanol] | 4 (10 à 30) |
| CC(=O)OC(CBr)(CS(=O)(=O)c1sccc1Br)c1ccccc1 (centres unmarked) [compound 60, 2-acétoxy 3-bromo 1-[(3-bromo 2-thiényl)sulfonyl] 2-phényl propane] | 5 (O à 10) |
| O=S(=O)(CC(O)(CBr)c1ccc(F)c(Cl)c1)c1ccsc1 (centres unmarked) [compound 65] | 5 (O à 10) |

These molecules were tested on Panicum milicaeum in the same assay as above. Conditions: dose 0.5 Kg m.a./ha, 24 days.
Type: in vivo
Excerpt: as §1, §2, §3, §4, §5, §6, §7, §8, §9, §10, §11, §12, §13

| Compound | Notation de l'activité herbicide PAN |
| --- | --- |
| O=S(=O)(CC(O)(CBr)c1cccc(F)c1)c1cccs1 (centres unmarked) [compound 53, 1-bromo 2-(3-fluorophényl) 3-(2-thiénylsulfonyl) 2-propanol] | 1 (70 à 90) |
| CC(=O)OC(CBr)(CS(=O)(=O)c1sccc1Br)c1ccccc1 (centres unmarked) [compound 60, 2-acétoxy 3-bromo 1-[(3-bromo 2-thiényl)sulfonyl] 2-phényl propane] | 3 (30 à 50) |
| O=S(=O)(CC(O)(CBr)c1ccc(F)c(Cl)c1)c1ccsc1 (centres unmarked) [compound 65] | 3 (30 à 50) |

The molecules below were run on Setaria faberii in the same assay as above. Conditions: dose 0.5 Kg m.a./ha, 24 days.
Type: in vivo
Excerpt: as §1, §2, §3, §4, §5, §6, §7, §8, §9, §10, §11, §12, §13

| Compound | Notation de l'activité herbicide SET |
| --- | --- |
| O=S(=O)(CC(O)(CBr)c1cccc(F)c1)c1cccs1 (centres unmarked) [compound 53, 1-bromo 2-(3-fluorophényl) 3-(2-thiénylsulfonyl) 2-propanol] | 1 (70 à 90) |
| CC(=O)OC(CBr)(CS(=O)(=O)c1sccc1Br)c1ccccc1 (centres unmarked) [compound 60, 2-acétoxy 3-bromo 1-[(3-bromo 2-thiényl)sulfonyl] 2-phényl propane] | 4 (10 à 30) |
| O=S(=O)(CC(O)(CBr)c1ccc(F)c(Cl)c1)c1ccsc1 (centres unmarked) [compound 65] | 0 (90 à 100) |

Each molecule was assayed on Sorghum halepense in the same assay as above. Conditions: dose 0.5 Kg m.a./ha, 24 days.
Type: in vivo
Excerpt: as §1, §2, §3, §4, §5, §6, §7, §8, §9, §10, §11, §12, §13

| Compound | Notation de l'activité herbicide SOR |
| --- | --- |
| O=S(=O)(CC(O)(CBr)c1cccc(F)c1)c1cccs1 (centres unmarked) [compound 53, 1-bromo 2-(3-fluorophényl) 3-(2-thiénylsulfonyl) 2-propanol] | 4 (10 à 30) |
| CC(=O)OC(CBr)(CS(=O)(=O)c1sccc1Br)c1ccccc1 (centres unmarked) [compound 60, 2-acétoxy 3-bromo 1-[(3-bromo 2-thiényl)sulfonyl] 2-phényl propane] | 5 (O à 10) |
| O=S(=O)(CC(O)(CBr)c1ccc(F)c(Cl)c1)c1ccsc1 (centres unmarked) [compound 65] | 5 (O à 10) |

What follows are molecules tested on blé (assay: Exemple C: selectivity test in field crops, pre-emergence (crop)). Conditions: dose 0.5 Kg m.a./ha, 24 days, 0 or 1 = selective. Also: ranges in brackets are in %.
Type: in vivo
Excerpt: as §1, §2, §3, §4, §5, §6, §7, §8, §9, §10, §11, §12
(§14) Les espèces végétales utilisées dans cet exemple sont:
(§15) Comme on peut le voir sur le tableau de résultats de cet exemple C, de nombreux produits présentent une excellente activité antigraminée de prélevée tout en montrant une excellente sélectivité pour 1 ou 2 ou 3 ou 4 des 4 cultures testées = blé, maïs, riz, soja.

| Compound | Notation de l'activité herbicide TRZ |
| --- | --- |
| O=S(=O)(CC(O)(CBr)c1cccc(F)c1)c1cccs1 (centres unmarked) [compound 53, 1-bromo 2-(3-fluorophényl) 3-(2-thiénylsulfonyl) 2-propanol] | 0 (90 à 100) |
| CC(=O)OC(CBr)(CS(=O)(=O)c1sccc1Br)c1ccccc1 (centres unmarked) [compound 60, 2-acétoxy 3-bromo 1-[(3-bromo 2-thiényl)sulfonyl] 2-phényl propane] | 0 (90 à 100) |
| O=S(=O)(CC(O)(CBr)c1ccc(F)c(Cl)c1)c1ccsc1 (centres unmarked) [compound 65] | 0 (90 à 100) |

The molecules below were run on maïs in the same assay as above. Conditions: dose 0.5 Kg m.a./ha, 24 days, 0 or 1 = selective.
Type: in vivo
Excerpt: as §1, §2, §3, §4, §5, §6, §7, §8, §9, §10, §11, §12, §14, §15

| Compound | Notation de l'activité herbicide ZEA |
| --- | --- |
| O=S(=O)(CC(O)(CBr)c1cccc(F)c1)c1cccs1 (centres unmarked) [compound 53, 1-bromo 2-(3-fluorophényl) 3-(2-thiénylsulfonyl) 2-propanol] | 2 (50 à 70) |
| CC(=O)OC(CBr)(CS(=O)(=O)c1sccc1Br)c1ccccc1 (centres unmarked) [compound 60, 2-acétoxy 3-bromo 1-[(3-bromo 2-thiényl)sulfonyl] 2-phényl propane] | 0 (90 à 100) |
| O=S(=O)(CC(O)(CBr)c1ccc(F)c(Cl)c1)c1ccsc1 (centres unmarked) [compound 65] | 0 (90 à 100) |

The molecules below were run on riz in the same assay as above. Conditions: dose 0.5 Kg m.a./ha, 24 days, 0 or 1 = selective.
Type: in vivo
Excerpt: as §1, §2, §3, §4, §5, §6, §7, §8, §9, §10, §11, §12, §14, §15

| Compound | Notation de l'activité herbicide ORY |
| --- | --- |
| O=S(=O)(CC(O)(CBr)c1cccc(F)c1)c1cccs1 (centres unmarked) [compound 53, 1-bromo 2-(3-fluorophényl) 3-(2-thiénylsulfonyl) 2-propanol] | 3 (30 à 50) |
| CC(=O)OC(CBr)(CS(=O)(=O)c1sccc1Br)c1ccccc1 (centres unmarked) [compound 60, 2-acétoxy 3-bromo 1-[(3-bromo 2-thiényl)sulfonyl] 2-phényl propane] | 0 (90 à 100) |
| O=S(=O)(CC(O)(CBr)c1ccc(F)c(Cl)c1)c1ccsc1 (centres unmarked) [compound 65] | 3 (30 à 50) |

What follows are molecules tested on soja in the same assay as above. Conditions: dose 0.5 Kg m.a./ha, 24 days, 0 or 1 = selective. Also: ranges in brackets are in %.
Type: in vivo
Excerpt: as §1, §2, §3, §4, §5, §6, §7, §8, §9, §10, §11, §12, §14, §15

| Compound | Notation de l'activité herbicide GLY |
| --- | --- |
| O=S(=O)(CC(O)(CBr)c1cccc(F)c1)c1cccs1 (centres unmarked) [compound 53, 1-bromo 2-(3-fluorophényl) 3-(2-thiénylsulfonyl) 2-propanol] | 0 (90 à 100) |
| CC(=O)OC(CBr)(CS(=O)(=O)c1sccc1Br)c1ccccc1 (centres unmarked) [compound 60, 2-acétoxy 3-bromo 1-[(3-bromo 2-thiényl)sulfonyl] 2-phényl propane] | 0 (90 à 100) |
| O=S(=O)(CC(O)(CBr)c1ccc(F)c(Cl)c1)c1ccsc1 (centres unmarked) [compound 65] | 0 (90 à 100) |
